{"source": "patent US9051345B2", "about": "“Metalloinsertor complexes targeted to DNA mismatches” (CALIFORNIA INSTITUTE OF TECHNOLOGY, priority 2011, dated 2015)", "key": {"HCT116N cells": {"test_system": "HCT116N cells", "assay": "MTT cytotoxicity assay", "format": "cell-based, human", "conditions": "72 hours", "description": "Cytotoxicity assays were performed as described in Mosmann, 1983, J. Immunol. Methods, 65, 55-63, the entire contents of which is incorporated herein by reference. HCT116N and HCT116O cells were plated in 96-well plates at 50,000 cells/well and incubated with rhodium for the durations specified. After incubation with the indicated rhodium complexes, cells were labeled with MTT for 4 hours at 37° C. under 5% CO2 and humidified atmosphere. The resulting formazan crystals were dissolved with solubilizing reagent purchased from Roche according to the manufacturer's instructions. The dissolved formazan was quantified as the absorbance at 570 nm minus the background absorbance at 690 nm. Percent viability was determined as the ratio of the amount of formazan in the treated cells to that of the untreated cells.\nIn order to elucidate the mechanism of action for the cytotoxicity caused by a metalloinsertor complex of Formula I, the MTT cytotoxicity assay was repeated in the absence and presence of the pan-caspase inhibitor Z-VAD-FMK. This inhibitor works by irreversibly binding to the active site of caspases which participate in the apoptotic pathway. Z-VAD-FMK was added to a final concentration of 20 μM. The HCT116N and HCT116O cell lines were treated with 0-30 μM of the [Rh(HDPA)2chrysi]^3+ complex for 24-72 hours. In addition, each treatment was also combined with the inhibitor at a final concentration of 20 μM.\nIn order to determine the mechanism of action for cytotoxicity caused by a metalloinsertor complex of Formula I, the MTT cytotoxicity assay was repeated in conjunction with a panel of poly-ADP ribose polymerase (PARP) inhibitors: DPQ, 3-AB, 4-AN, and ABT-888, as described in Costantino et al., 2001, J. Med. Chem., 44, 3786-3794; Purnell et al., 1980, Biochem. J. 185, 775-777; Banasik et al., 1992, J. Biol. Chem. 267, 1569-1575; and Donawho et al., 2007, Clin. Cancer Res., 13, 2728-2737, the entire contents of all of which are incorporated herein by reference. […]"}, "[1]": {"test_system": "HCT116N and HCT116O cells", "assay": "ICP-MS assay for cellular rhodium levels, whole cell lysates", "format": "cell-based, human", "conditions": "10 μM; 48 hours; compared to [Rh(bpy)2chrysi]^3+ or [Rh(NH3)4chrysi]^3+", "description": "To assay the subcellular localization of the rhodium complexes, an inductively coupled plasma mass spectrometry (ICP-MS) assay was used to quantify the uptake of the complexes in both whole cell extracts and nuclear and mitochondrial fractions.\nEach cell line was treated with 10 μM of each rhodium complex as indicated in FIG. 33A (except [Rh(DIP)2(chrysi]^3+ which was administered at 2 μM) for 1, 3, 6, 12, 24, or 48 hours. After rhodium incubation, the cells were harvested from adherent culture by trypsinization, washed with cold PBS, and counted by hemacytometer. The samples were pelleted and resuspended in 1% HNO3 (v/v), homogenized by three freeze/thaw cycles in liquid nitrogen, and analyzed for rhodium content on an HP-4500 ICP-MS unit. Rhodium counts were normalized to the number of cells counted in each sample before lysate preparation. Standard errors for three independent experiments are shown."}}}
{"substance": "[Rh(HDPA)2chrysi]^3+", "values": [{"measurement": "number of viable HCT116N cells, % of untreated controls", "setting": "HCT116N cells; 20 μM", "value": "80±5.2", "unit": "%"}, {"measurement": "cell viability HCT116N with caspase inhibitor", "setting": "HCT116N cells; 30 μM metal complex, with Z-VAD-FMK at 20 M (so in the source)", "value": "52±9.8", "unit": "%"}, {"measurement": "cell viability HCT116N", "setting": "HCT116N cells; 30 μM metal complex, without inhibitor", "value": "63±5.7", "unit": "%"}, {"measurement": "cellular uptake (rhodium accumulation in whole cell lysates)", "setting": "[1]", "value": "increase in cellular uptake"}]}
